Data from patent US20170321282A1, “IMPROVED TREATMENTS OF CANCER RESISTANT TO TAXOIDS” (INSTITUT GUSTAVE ROUSSY, priority 2014, published 2017).

Key:
[1] = tested on: parental IGR-CaP1 cells; assay: Colony formation (clonogenicity) assay, parental cells; type: cell-based, human; details: 25 μM LY2157299 alone, 72 h pretreatment, stained 2 weeks later
Description: (§1) Colony formation assay. Cells were pretreated with 25 μM LY2157299 or vehicle for 72 hours. Then, cells were treated with Docetaxel and/or 25 μM LY2157299, control cells were treated with vehicle. Docetaxel was used at 12 nM in parental IGR-CaP1 and 100 nM in resistant IGR-CaP1-R100. Cells were stained with Crystal Violet 2 weeks later. Data are represented as mean±SD. […] Representative cell colonies obtained in each condition is shown.
(§2) IGR-CaP1 and IGR-CaP1-R cells were plated in 6 well plates for 24 hours. Cells were pre-treated with 25 μM LY2157299 or vehicle for 72 hours, and then co-treated with LY2157299 and docetaxel (12 nM for parental cells, 100 nM for resistant cells). After 2 weeks, clones were methanol fixed and stained using Crystal violet (sigma). Clones were counted using ImageJ software.

[2] = tested on: resistant IGR-CaP1-R100 cells; assay: Colony formation (clonogenicity) assay, docetaxel-resistant cells; type: cell-based, human; details: 25 μM LY2157299 alone, 72 h pretreatment, stained 2 weeks later
Description: as §1, §2

[3] = tested on: SHISA3 expression in IGR-CaP1-R25 tumors; assay: SHISA3 mRNA expression by quantitative PCR in docetaxel-resistant xenograft tumors; type: in vivo, nude athymic mice; details: docetaxel vs vehicle
Description: (§3) FIG. 1: Expression of SHISA3 in docetaxel-resistant prostate cancer cells and in other cancers A. Real-time qRT-PCR showing the inhibition of SHISA3 gene expression in docetaxel-resistant IGR-CaP1-R and PC3-R cells. B. Whole cell extracts of parental and drug-resistant cells were subjected to immunoblotting with antibodies specific for SHISA3 or β-actin (loading control). Arrows indicate specific bands corresponding to SHISA3, star indicates a non-specific band. C. […] D-E. SHISA3 mRNA was assessed by determining ΔCt in normal tissues and in several solid tumors. Results were normalized to the universal RNA included in each panel. In D, out of all the tested tissues for SHISA3 expression, only tissues with the highest expression were shown. In E, the bars represent the mean. P value was derived from the two-tailed Student's t test. F. Subcellular localization after transfection of SHISA3-Flag-GFP in HEK cells. Cells were analyzed by confocal microscopy. GFP stained the transfected cells, SHISA3 was labeled with anti-SHISA3 antibody (red) and nucleus was stained with Dapi. […] Secondary antibodies were used as followed: Alexa-568 for SHISA3 and Alexa-647 for Calnexin and GM130. G. SHISA3 mRNA expression was assessed in vivo on nude athymic mice models. […] SHISA3 expression has been obtained by quantitative PCR and normalized by its expression in a control sample of Universal RNA. […]

[4] = tested on: SHISA3 expression in IGR-CaP1 tumors; assay: SHISA3 mRNA expression by quantitative PCR in docetaxel-sensitive xenograft tumors; type: in vivo, nude athymic mice; details: docetaxel vs vehicle
Description: as §3

[5] = tested on: parental IGR-CaP1 and PC3 cells; assay: EMT induction by TGFβ1, immunoblot of SHISA3 and EMT markers; type: cell-based, human; details: 10 ng/ml TGFβ1, 5 days
Description: A. Schematic structure of SHISA3 and SHISA3-Flag sharing a signal peptide (black box), an amino-terminal CRD (blue box), a predicted transmembrane segment (TM), and a carboxy-terminal proline-rich region (Grey box). The position of the FLAG tag (red box) is indicated. B. SHISA3 and endogenous TGFβR2 interaction. Cells extracts from IGR-CaP1, PC3 and HEK cells transfected with SHISA3-Flag were immunoprecipitated with anti-TGFβR2, anti-EGFR, anti-Flag antibodies or IgG as control and analyzed by immunoblot using anti-TGFβR2, anti-EGFR and anti-SHISA3 antibodies. Input represents 10% of the IP. C. Co-localization of SHISA3 and TGFβR2 in cytoplasmic granules and speckles at the membrane. Subcellular localizations of SHISA3 and TGFβR2 were analyzed by confocal microscopy after co-transfection of SHISA3-Flag and HA-TGFβR2 in HEK cells using anti-SHISA3 and anti-TGFβR2 primary antibodies, and Alexa-568- and Alexa-647-conjugated secondary antibodies respectively. Nuclei were labeled with Dapi. Overlapped fluorescent signals (yellow) indicated co-localized proteins. D. SHISA3 and EMT markers expression 5 days after cell treatment with TGFβ1. […] Quantification of bands relative to beta actin is shown.
2,5.10^4 IGR-CaP1 cells and 5.10^4 PC3 cells were plated in 6-well plates for 24 hours then transiently transfected with 10 nM synthetic siRNA targeting SHISA3 gene (Stealth RNAi™, siSHISA3-94: HSS152694, siSHISA3-95: HSS152695, and siSHISA3-96: HSS152696) using lipofectamine RNAiMax (Invitrogen) or treated with 10 ng/ml TGFβ1. After 36 hours, a second treatment was performed in order to maintain EMT induction over 5 days. Negative controls were obtained by treating cells with siRNA negative controls (siNT) (Invitrogen) or TGFβ1 vehicle. Whole cell extracts were prepared in RIPA buffer complemented with proteases inhibitors (Roche) and phosphatase inhibitors (Sigma).
Fifty μg of lysates were used for Western-Blot probed with specific antibodies: SHISA3 (Abgent), E-cadherin (BD Biosciences, clone 36), N-Cadherin (BD Biosciences, Clone 32), β-catenin (Santa Cruz, clone 12F7), Vimentin (BD Pharmingen, clone RV202), Occludin (Life Technologies, Clone OC-3F10), Plakoglobin (Sigma-Aldrich, Clone 15F11), Snail (Cell Signaling, Clone C15D3), ZEB1 (Cell Signaling, D80D), EGFR (Cell Signaling, Clone D38B1), TGFβR2 (Santa Cruz, Clone E-6), Ubiquitin (Santa Cruz, Clone P4D1), Flag (Sigma, M2). β-actin (Sigma-Aldrich, Clone AC-15) was used as a loading control. Immunoblot analyses were performed using the enhanced chemoluminescence-based detection kit (Pierce).

Cc1cccc(-c2nn3c(c2-c2ccnc4ccc(C(N)=O)cc24)CCC3)n1 [LY2157299]
survival of parental cells (colony formation) [1]: did not affect the survival
survival of resistant cells (colony formation) [2]: did not affect the survival

CC(=O)O[C@@]12CO[C@@H]1C[C@H](O)[C@@]1(C)C(=O)[C@H](O)C3=C(C)[C@@H](OC(=O)[C@H](O)[C@@H](NC(=O)OC(C)(C)C)c4ccccc4)C[C@@](O)([C@@H](OC(=O)c4ccccc4)[C@H]21)C3(C)C [docetaxel]
SHISA3 gene expression in tumors [3]: did not affect its expression
SHISA3 gene expression in tumors [4]: strong decrease

TGFβ: TGFβ1 purchased from R&D Systems
CDH1 expression [5]: decrease
CDH2 expression [5]: increase
VIM expression [5]: increase
SHISA3 expression ([5]; vs control cells): decrease
